System: ZIKV
Assay: microbe, parasite or virus in culture
Assay type: cell-based, Zika virus
Conditions: 48 hrs

Row | Compound | EC50 [nM] | EC50 (Zika virus, Huh-7) [nM]
1 | methyl ((S)-1-((2S,5S)-2-(5-(2-((2S,5S)-1-(O-(tert-butyl)-N-(methoxycarbonyl)-L-threonyl)-5-methylpyrrolidin-2-yl)-1,11-dihydroisochromeno[4′,3′:6,7]naphtho[1,2-d]imidazol-9-yl)-4-chloro-1H-imidazol-2-yl)-5-methylpyrrolidin-1-yl)-3-methyl-1-oxobutan-2-yl)carbamate [Compound 1] | 24.9 | –
2 | COC(=O)N[C@H](C(=O)N1[C@@H](C)CC[C@H]1c1nc(C(C)C)c(-c2ccc3c(c2)COc2cc4c(ccc5nc([C@@H]6CC[C@H](C)N6C(=O)[C@@H](NC(=O)OC)C(C)C)[nH]c54)cc2-3)[nH]1)C(C)C [Compound 43, methyl ((S)-1-((2S,5S)-2-(4-isopropyl-5-(2-((2S,5S)-1-((methoxycarbonyl)-L-valyl)-5-methylpyrrolidin-2-yl)-1,11-dihydroisochromeno[4′,3′:6,7]naphtho[1,2-d]imidazol-9-yl)-1H-imidazol-2-yl)-5-methylpyrrolidin-1-yl)-3-methyl-1-oxobutan-2-yl)carbamate] | – | 57.7
3 | CC[C@@H](C)[C@H](NC(=O)OC)C(=O)N1C[C@@H](COC)C[C@H]1c1nc(Cl)c(-c2ccc3c(c2)COc2cc4c(ccc5nc([C@@H]6CC[C@H](C)N6C(=O)[C@@H](NC(=O)OC)C(C)C)[nH]c54)cc2-3)[nH]1 [Compound 19, methyl ((S)-1-((2S,5S)-2-(9-(4-chloro-2-((2S,4S)-1-((methoxycarbonyl)-L-alloisoleucyl)-4-(methoxymethyl)pyrrolidin-2-yl)-1H-imidazol-5-yl)-1,11-dihydroisochromeno[4′,3′:6,7]naphtho[1,2-d]imidazol-2-yl)-5-methylpyrrolidin-1-yl)-3-methyl-1-oxobutan-2-yl)carbamate] | – | 16.4
4 | COC(=O)N[C@H](C(=O)N1[C@@H](C)CC[C@H]1c1nc(F)c(-c2ccc3c(c2)COc2cc4c(ccc5nc([C@@H]6CC[C@H](C)N6C(=O)[C@@H](NC(=O)OC)C(C)C)[nH]c54)cc2-3)[nH]1)C(C)C [Compound 33, methyl ((S)-1-((2S,5S)-2-(9-(4-fluoro-2-((2S,5S)-1-((methoxycarbonyl)-L-valyl)-5-methylpyrrolidin-2-yl)-1H-imidazol-5-yl)-1,11-dihydroisochromeno[4′,3′:6,7]naphtho[1,2-d]imidazol-2-yl)-5-methylpyrrolidin-1-yl)-3-methyl-1-oxobutan-2-yl)carbamate] | – | 77.3

Reference: patent publication US12037340B2, “Pentacyclic derivatives as Zika virus inhibitors” (Gilead Sciences, Inc., priority 2021, dated 2024)
